Reference: patent publication US20150272950A1, “COMBINATION” (GLAXOSMITHKLINE LLC, priority 2012, published 2015)

Test system: SKOV3 cells (human ovarian carcinoma)
Test: SKOV3 subcutaneous xenograft tumor growth inhibition in female SCID mice
Format: in vivo
Details: 21 days, alone, SKOV3 tumors in SCID mice
Method: Female SCID mice were implanted subcutaneously with 5×10^6 SKOV3 cells (human ovarian carcinoma). When the tumor volume reached 300-400 mm^3, mice were block randomized to different treatment groups (n=8 mice/group). Mice received AKT inhibitor, Compound B (in this assay, Compound B, is used in the form of the free or unsalted compound), at 10 or 30 mg/kg, once daily (SID) for 21 days in 20% PEG-400, 1% DMSO in water. Compound A (in this assay, Compound A, is used in the form of monohydrochloride salt) was administered at 100 mg/kg, twice/day (BID) for 21 days either alone or in combination with Compound B. Mice were weighed and tumors measured by calipers twice weekly. Tumor volumes were calculated using the formula: tumor volume=(Length×Width^2)/2. The percentage of tumor growth inhibition was calculated on each day of tumor measurement using the formula: 100×[1-(average growth of the compound-treated tumors/average growth of vehicle-treated control tumors)].

Cc1ccc(Nc2nccc(N(C)c3ccc4c(C)n(C)nc4c3)n2)cc1S(N)(=O)=O [Compound A, 5-[[4-[(2,3-dimethyl-2H-indazol-6-yl)methylamino]-2-pyrimidinyl]amino]-2-methylbenzenesulfonamide, reference compound]
inhibition of tumor growth compared to vehicle treated mice (Compound A (monohydrochloride salt) 100 mg/kg, twice daily): 47%

Cn1ncc(Cl)c1-c1cc(C(=O)N[C@H](CN)Cc2ccc(F)c(F)c2)oc1Cl [Compound B, N-{(1S)-2-amino-1-[(3,4-difluorophenyl)methyl]ethyl}-5-chloro-4-(4-chloro-1-methyl-1H-pyrazol-5-yl)-2-furancarboxamide]
inhibition of tumor growth compared to vehicle treated mice (Compound B (free compound) 10 mg/kg, once daily): 67% | inhibition of tumor growth compared to vehicle treated mice (Compound B (free compound) 30 mg/kg, once daily): 86%
